Results on 18 molecules are retold here after the supplement of paper PMC8967900.
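Further: ALL cell lines in 384-well plates, five doses spanning 10,000-fold, each plate scaled between vehicle and 100 µmol/L benzalkonium chloride controls, sDSS an adapted area-under-curve metric.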

The test system of one assay is 697. The experiment in a line: selective drug sensitivity score (sDSS, relative to normal bone marrow) (sDSS (score)); higher = more potent and effective on the cell line relative to normal bone marrow cells. As to conditions: 72 h.
For `CC(=O)[C@]1(O)Cc2c(O)c3c(c(O)c2[C@@H](O[C@H]2C[C@H](N)[C@H](O)[C@H](C)O2)C1)C(=O)c1ccccc1C3=O` [Idarubicin] (top concentration 1000 nM), the “selective drug sensitivity score” value amounted to 8.84.

Turning to `COc1cc2nccc(Oc3ccc(NC(=O)NC4CC4)c(Cl)c3)c2cc1C(N)=O` [Lenvatinib] (top concentration 2500 nM), the “selective drug sensitivity score” value stood at 2.16.

Take `N#Cc1ccc(C(c2ccc(C#N)cc2)n2cncn2)cc1` [Letrozole] (top concentration 10000 nM): the “selective drug sensitivity score” value was -0.04.

In the case of `CCNCCS(=O)(=O)NC[C@@]1(c2ccccc2)SC(NC(=O)C(C)(C)C)=NN1C(=O)C(C)(C)C` [Litronesib] (top concentration 1000 nM), the “selective drug sensitivity score” value is 20.9.

As to `CC[C@H](C)C(=O)O[C@H]1C[C@@H](C)C=C2C=C[C@H](C)[C@H](CC[C@@H]3C[C@@H](O)CC(=O)O3)[C@H]21` [Lovastatin] (top concentration 10000 nM), the “selective drug sensitivity score” value came out at 0.1.

With `Cn1cc(-c2cnn3c(N)c(Br)c([C@@H]4CCCNC4)nc23)cn1` [MK-8776] (top concentration 2500 nM), the “selective drug sensitivity score” value stood at 1.54.

Take `Cc1cnc(-c2ccccc2C(C)C)nc1NCc1ccc(-n2ccnn2)cc1` [ML323] (top concentration 10000 nM): the “selective drug sensitivity score” value stood at 3.54.

For the molecule `O=C(CCNC(=O)c1ccc(OC(F)(F)F)cc1)N[C@@H]1CCCc2ccccc21` [ML390] (top concentration 50000 nM), the “selective drug sensitivity score” value came to 16.4.

As for `CN(C)C(=N)NC(=N)N` [Metformin] (top concentration 100000 nM), the “selective drug sensitivity score” value was -0.02.

Regarding `C[C@H]1C[C@@H]2[C@H]([C@@H](O)C[C@@]3(C)[C@H]2CC[C@]3(O)C(=O)CO)[C@@]2(C)C=CC(=O)C=C12` [Methylprednisolone] (top concentration 10000 nM), the “selective drug sensitivity score” value is 22.3.

As for `FC(F)(F)c1ccc(/C=C/c2nc(COc3ccc(CCCCn4ccnn4)cc3)co2)cc1` [Mubritinib] (top concentration 1000 nM), the “selective drug sensitivity score” value stood at 15.5.

Take `COc1cc2c(cc1OC(C)C)[C@H](c1ccc(Cl)cc1)N(c1ccc(N(C)C[C@H]3CC[C@H](N4CCN(C)C(=O)C4)CC3)cc1)C(=O)C2` [NVP-CGM097] (top concentration 25000 nM): the “selective drug sensitivity score” value was found to be 7.86.

On to `CCOc1cc2ncc(C#N)c(Nc3ccc(OCc4ccccn4)c(Cl)c3)c2cc1NC(=O)/C=C/CN(C)C` [Neratinib] (top concentration 1000 nM), for which the “selective drug sensitivity score” value came to 6.28.

For the molecule `COc1ncc(-c2ccc3nccc(-c4ccnnc4)c3c2)cc1NS(=O)(=O)c1ccc(F)cc1F` [Omipalisib] (top concentration 1000 nM), the “selective drug sensitivity score” value was 11.9.

In the case of `CN1CCN(c2cc(C(=O)Nc3ccc4c(c3)-c3c(c(C(N)=O)nn3-c3ccc(F)cc3)CC4)c(Cl)cn2)CC1` [PHA-408] (top concentration 10000 nM), the “selective drug sensitivity score” value was 0.78.

For the molecule `OC[C@H]1O[C@@H](n2cnc3c2N=CNC[C@H]3O)C[C@@H]1O` [Pentostatin] (top concentration 10000 nM), the “selective drug sensitivity score” value was -0.44.

On to `CC(C)N(C[C@H]1O[C@@H](n2cnc3c(N)ncnc32)[C@H](O)[C@@H]1O)[C@H]1C[C@@H](CCc2nc3cc(C(C)(C)C)ccc3[nH]2)C1` [Pinometostat] (top concentration 1000 nM), for which the “selective drug sensitivity score” value stood at 0.

Turning to `Cc1ccc(=O)n(-c2ccccc2)c1` [Pirfenidone] (top concentration 10000 nM), the “selective drug sensitivity score” value is 0.

The next assay concerns ALL-SIL. The description is as above. The following applies: 72 h.
Consider `CC(=O)[C@]1(O)Cc2c(O)c3c(c(O)c2[C@@H](O[C@H]2C[C@H](N)[C@H](O)[C@H](C)O2)C1)C(=O)c1ccccc1C3=O` [Idarubicin] (top concentration 1000 nM), for which the “selective drug sensitivity score” value was 4.64.

Consider `COc1cc2nccc(Oc3ccc(NC(=O)NC4CC4)c(Cl)c3)c2cc1C(N)=O` [Lenvatinib] (top concentration 2500 nM), for which the “selective drug sensitivity score” value was found to be 5.56.

On to `N#Cc1ccc(C(c2ccc(C#N)cc2)n2cncn2)cc1` [Letrozole] (top concentration 10000 nM), for which the “selective drug sensitivity score” value is -0.04.

Consider `CCNCCS(=O)(=O)NC[C@@]1(c2ccccc2)SC(NC(=O)C(C)(C)C)=NN1C(=O)C(C)(C)C` [Litronesib] (top concentration 1000 nM), for which the “selective drug sensitivity score” value is 19.2.

Turning to `CC[C@H](C)C(=O)O[C@H]1C[C@@H](C)C=C2C=C[C@H](C)[C@H](CC[C@@H]3C[C@@H](O)CC(=O)O3)[C@H]21` [Lovastatin] (top concentration 10000 nM), the “selective drug sensitivity score” value came out at 0.9.

Regarding `Cn1cc(-c2cnn3c(N)c(Br)c([C@@H]4CCCNC4)nc23)cn1` [MK-8776] (top concentration 2500 nM), the “selective drug sensitivity score” value stood at 2.04.

As for `Cc1cnc(-c2ccccc2C(C)C)nc1NCc1ccc(-n2ccnn2)cc1` [ML323] (top concentration 10000 nM), the “selective drug sensitivity score” value came to 2.64.

Turning to `O=C(CCNC(=O)c1ccc(OC(F)(F)F)cc1)N[C@@H]1CCCc2ccccc21` [ML390] (top concentration 50000 nM), the “selective drug sensitivity score” value stood at 2.

On to `CN(C)C(=N)NC(=N)N` [Metformin] (top concentration 100000 nM), for which the “selective drug sensitivity score” value is -0.02.

In the case of `C[C@H]1C[C@@H]2[C@H]([C@@H](O)C[C@@]3(C)[C@H]2CC[C@]3(O)C(=O)CO)[C@@]2(C)C=CC(=O)C=C12` [Methylprednisolone] (top concentration 10000 nM), the “selective drug sensitivity score” value was 10.9.

With `FC(F)(F)c1ccc(/C=C/c2nc(COc3ccc(CCCCn4ccnn4)cc3)co2)cc1` [Mubritinib] (top concentration 1000 nM), the “selective drug sensitivity score” value is 8.66.

Turning to `COc1cc2c(cc1OC(C)C)[C@H](c1ccc(Cl)cc1)N(c1ccc(N(C)C[C@H]3CC[C@H](N4CCN(C)C(=O)C4)CC3)cc1)C(=O)C2` [NVP-CGM097] (top concentration 25000 nM), the “selective drug sensitivity score” value was -6.74.

As to `CCOc1cc2ncc(C#N)c(Nc3ccc(OCc4ccccn4)c(Cl)c3)c2cc1NC(=O)/C=C/CN(C)C` [Neratinib] (top concentration 1000 nM), the “selective drug sensitivity score” value amounted to 1.08.

In the case of `COc1ncc(-c2ccc3nccc(-c4ccnnc4)c3c2)cc1NS(=O)(=O)c1ccc(F)cc1F` [Omipalisib] (top concentration 1000 nM), the “selective drug sensitivity score” value was found to be 4.6.

Consider `CN1CCN(c2cc(C(=O)Nc3ccc4c(c3)-c3c(c(C(N)=O)nn3-c3ccc(F)cc3)CC4)c(Cl)cn2)CC1` [PHA-408] (top concentration 10000 nM), for which the “selective drug sensitivity score” value is 2.58.

As to `OC[C@H]1O[C@@H](n2cnc3c2N=CNC[C@H]3O)C[C@@H]1O` [Pentostatin] (top concentration 10000 nM), the “selective drug sensitivity score” value was -0.44.

With `CC(C)N(C[C@H]1O[C@@H](n2cnc3c(N)ncnc32)[C@H](O)[C@@H]1O)[C@H]1C[C@@H](CCc2nc3cc(C(C)(C)C)ccc3[nH]2)C1` [Pinometostat] (top concentration 1000 nM), the “selective drug sensitivity score” value is 0.2.

Turning to `Cc1ccc(=O)n(-c2ccccc2)c1` [Pirfenidone] (top concentration 10000 nM), the “selective drug sensitivity score” value amounted to 0.

The next assay relates to CCRF-CEM. Described as above. As to conditions: 72 h.
In the case of `CC(=O)[C@]1(O)Cc2c(O)c3c(c(O)c2[C@@H](O[C@H]2C[C@H](N)[C@H](O)[C@H](C)O2)C1)C(=O)c1ccccc1C3=O` [Idarubicin] (top concentration 1000 nM), the “selective drug sensitivity score” value was 8.84.

Consider `COc1cc2nccc(Oc3ccc(NC(=O)NC4CC4)c(Cl)c3)c2cc1C(N)=O` [Lenvatinib] (top concentration 2500 nM), for which the “selective drug sensitivity score” value was 0.16.

For the molecule `N#Cc1ccc(C(c2ccc(C#N)cc2)n2cncn2)cc1` [Letrozole] (top concentration 10000 nM), the “selective drug sensitivity score” value is -0.04.

With `CCNCCS(=O)(=O)NC[C@@]1(c2ccccc2)SC(NC(=O)C(C)(C)C)=NN1C(=O)C(C)(C)C` [Litronesib] (top concentration 1000 nM), the “selective drug sensitivity score” value came to 19.8.

Turning to `CC[C@H](C)C(=O)O[C@H]1C[C@@H](C)C=C2C=C[C@H](C)[C@H](CC[C@@H]3C[C@@H](O)CC(=O)O3)[C@H]21` [Lovastatin] (top concentration 10000 nM), the “selective drug sensitivity score” value came to 0.

As to `Cn1cc(-c2cnn3c(N)c(Br)c([C@@H]4CCCNC4)nc23)cn1` [MK-8776] (top concentration 2500 nM), the “selective drug sensitivity score” value stood at 1.04.

As to `Cc1cnc(-c2ccccc2C(C)C)nc1NCc1ccc(-n2ccnn2)cc1` [ML323] (top concentration 10000 nM), the “selective drug sensitivity score” value was 0.44.

As to `O=C(CCNC(=O)c1ccc(OC(F)(F)F)cc1)N[C@@H]1CCCc2ccccc21` [ML390] (top concentration 50000 nM), the “selective drug sensitivity score” value was 9.3.

Regarding `CN(C)C(=N)NC(=N)N` [Metformin] (top concentration 100000 nM), the “selective drug sensitivity score” value was -0.02.
